Consider 27 compounds from patent US20090312349A1, “ANTI-INFLAMMATORY MEDICAMENTS” (priority 2004, published 2009).

Where two headings read alike, the source gives them in different places.

Common to all, as to type: biochemical
In experiment [1] the target is T1, phospho p-38 alpha kinase (Homo sapiens, UniProt Q16539).
T1 construct: purchased Panvera
The experiment in a line: P-38 alpha kinase assay (spectrophotometric, pyruvate kinase/lactate dehydrogenase coupled).

Experiment [2] has as its target phosphorylated p-38-alpha kinase (Homo sapiens, UniProt Q16539). The experiment is described as follows: P-38 alpha kinase assay P1. The note with it: Method P1; for IC50: 2 h pre-incubation before ATP.
The target in a further experiment is B-Raf(V599E) kinase (Homo sapiens, UniProt P15056, V600E). The experiment is described as follows: B-Raf(V599E) kinase assay B1. The note with it: for IC50: Method B1, construct 1; for inhibition at 1 µM: read-out: Results, % @ concentration μM. On the procedure:
The test compounds were incubated with the reaction mixture at 30° C. for 2 h. […] The reaction rate was calculated using the 1.5 h to 2.5 h time frame. […] IC50 values were calculated from a series of percent inhibition values determined at a range of inhibitor concentrations using software routines as implemented in the GraphPad Prism software package.

The next experiment addresses KDR kinase (Homo sapiens, UniProt P35968, DEL940-989/E990V). The experiment is described as follows: KDR kinase assay K1. The note with it: read-out: Results, % @ concentration μM, Method K1; @ 10 μM. The method, then: IC50 values were calculated from a series of percent inhibition values determined at a range of inhibitor concentrations using software routines as implemented in the GraphPad Prism software package.

[3] abbreviates: Table 5, assay not named, read-out: uM.

Chain of KDR kinase (P35968 with tags, fused parts or gaps DEL940-989/E990V): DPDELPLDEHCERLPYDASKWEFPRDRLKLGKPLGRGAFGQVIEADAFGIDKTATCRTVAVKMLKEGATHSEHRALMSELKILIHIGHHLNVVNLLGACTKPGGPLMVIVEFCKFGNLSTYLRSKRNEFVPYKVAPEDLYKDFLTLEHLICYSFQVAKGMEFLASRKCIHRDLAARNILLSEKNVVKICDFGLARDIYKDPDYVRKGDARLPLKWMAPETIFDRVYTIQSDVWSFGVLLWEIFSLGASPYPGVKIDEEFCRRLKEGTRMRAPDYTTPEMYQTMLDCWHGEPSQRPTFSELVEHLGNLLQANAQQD
T1 sequence (Q16539 whole entry): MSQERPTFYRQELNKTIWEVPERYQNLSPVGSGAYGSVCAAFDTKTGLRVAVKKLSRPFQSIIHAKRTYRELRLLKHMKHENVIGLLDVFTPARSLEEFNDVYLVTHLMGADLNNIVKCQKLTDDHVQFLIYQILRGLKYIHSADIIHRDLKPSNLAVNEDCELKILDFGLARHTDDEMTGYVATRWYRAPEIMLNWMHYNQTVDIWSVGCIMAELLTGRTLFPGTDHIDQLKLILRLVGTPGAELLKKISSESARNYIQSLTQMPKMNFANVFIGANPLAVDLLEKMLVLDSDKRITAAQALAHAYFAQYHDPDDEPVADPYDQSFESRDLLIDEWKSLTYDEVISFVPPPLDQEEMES
Chain of B-Raf(V599E) kinase (P15056 with tags, fused parts or gaps V600E): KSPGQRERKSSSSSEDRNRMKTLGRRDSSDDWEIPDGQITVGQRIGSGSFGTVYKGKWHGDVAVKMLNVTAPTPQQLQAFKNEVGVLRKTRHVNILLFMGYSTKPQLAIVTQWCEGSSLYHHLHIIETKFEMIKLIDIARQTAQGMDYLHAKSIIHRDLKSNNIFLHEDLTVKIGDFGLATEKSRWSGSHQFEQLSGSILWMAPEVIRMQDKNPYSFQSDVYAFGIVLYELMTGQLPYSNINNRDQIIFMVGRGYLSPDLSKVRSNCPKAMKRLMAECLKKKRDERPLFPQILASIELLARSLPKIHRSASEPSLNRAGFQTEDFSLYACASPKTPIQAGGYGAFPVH
Chain of phosphorylated p-38-alpha kinase (Q16539 1-360 isoform Q16539-2): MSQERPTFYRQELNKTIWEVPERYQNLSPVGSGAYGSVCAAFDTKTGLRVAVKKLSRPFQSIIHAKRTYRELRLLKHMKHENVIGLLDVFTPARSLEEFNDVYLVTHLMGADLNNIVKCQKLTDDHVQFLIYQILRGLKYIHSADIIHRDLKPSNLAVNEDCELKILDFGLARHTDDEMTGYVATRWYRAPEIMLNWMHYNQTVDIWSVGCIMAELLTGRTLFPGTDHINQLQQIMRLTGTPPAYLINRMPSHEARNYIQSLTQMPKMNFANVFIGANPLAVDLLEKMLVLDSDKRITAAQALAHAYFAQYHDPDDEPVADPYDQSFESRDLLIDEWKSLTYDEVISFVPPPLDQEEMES

Turning to `CCOC(=O)CCc1cccc(-n2nc(C)cc2NC(=O)Nc2ccc(Cl)cc2)c1` [Example 428, 3-(3-{5-[3-(4-chloro-phenyl)-ureido)-3-methyl-pyrazol-1-yl}-phenyl)-propionic acid ethyl ester], the IC50 in experiment [1] (setting [3]) amounted to 0.14 µM. Still for that read-out and setting: next, `CC(C)c1cc(NC(=O)Nc2ccc(Cl)cc2)n(-c2cccc(CCC(=O)O)c2)n1` [Example 429, 3-(3-(5-(3-(4-chlorophenyl)ureido)-3-isopropyl-1H-pyrazol-1-yl)phenyl)propanoic acid]: 1.07 µM. For `O=C(O)Cc1cccc(-n2nc(-c3ccccc3)cc2NC(=O)Nc2cccc(Cl)c2Cl)c1` [Example 430, 2-(3-(5-(3-(2,3-dichlorophenyl)ureido)-3-phenyl-1H-pyrazol-1-yl)phenyl)acetic acid], the IC50 in experiment [1] (setting [3]) was determined as 0.942 µM. Consider `O=C(O)Cc1cccc(-n2nc(-c3cccc(F)c3)cc2NC(=O)Nc2cccc(Cl)c2Cl)c1` [Example 432, 2-(3-(5-(3-(2,3-dichlorophenyl)ureido)-3-(3-fluorophenyl)-1H-pyrazol-1-yl)phenyl)acetic acid], for which the “% @ concentration, uM” value in experiment [1] (Table 5, @ 1 uM) turned out to be 9%; in experiment [1] (Table 5, @ 10 uM), 24%. The IC50 in experiment [2] was determined as 0.011 µM. For the compound `O=C(O)Cc1cccc(-n2nc(-c3cccs3)cc2NC(=O)Nc2cccc(Cl)c2Cl)c1` [Example 435, 2-(3-(5-(3-(2,3-dichlorophenyl)ureido)-3-(thiophen-2-yl)-1H-pyrazol-1-yl)phenyl)acetic acid], the IC50 against B-Raf(V599E) kinase came out at 0.16 µM.

As to `O=C(O)Cc1ccc(-n2nc(-c3ccccc3)cc2NC(=O)Nc2cccc(Cl)c2Cl)cc1` [Example 438, 2-(4-(5-(3-(2,3-dichlorophenyl)ureido)-3-phenyl-1H-pyrazol-1-yl)phenyl)acetic acid], the IC50 in experiment [1] (setting [3]) is 1.3 µM. For the same compound, on KDR kinase, the inhibition at 10 µM was found to be 39%.

On to `O=C(O)Cc1ccc(-n2nc(-c3cccc(F)c3)cc2NC(=O)Nc2cccc(Cl)c2Cl)cc1` [Example 439, 2-(4-(5-(3-(2,3-dichlorophenyl)ureido)-3-(3-fluorophenyl)-1H-pyrazol-1-yl)phenyl)acetic acid], for which the IC50 in experiment [2] stood at 0.013 µM.

For the compound `O=C(O)Cc1ccc(-n2nc(-c3ccccc3F)cc2NC(=O)Nc2cccc(Cl)c2Cl)cc1` [Example 440, 2-(4-(5-(3-(2,3-dichlorophenyl)ureido)-3-(2-fluorophenyl)-1H-pyrazol-1-yl)phenyl)acetic acid], the IC50 is 0.92 µM in experiment [1] (setting [3]) and 0.009 µM in experiment [2]. In addition, at KDR kinase, the inhibition at 10 µM came out at 56%.

Take `O=C(O)Cc1ccc(-n2nc(-c3ccsc3)cc2NC(=O)Nc2cccc(Cl)c2Cl)cc1` [Example 444, 2-(4-(5-(3-(2,3-dichlorophenyl)ureido)-3-(thiophen-3-yl)-1H-pyrazol-1-yl)phenyl)acetic acid]: the IC50 in experiment [1] (setting [3]) worked out at 5 µM; in experiment [2] it was 0.006 µM. Further, the inhibition at 1 µM on B-Raf(V599E) kinase was 42%. With `NC(=O)Cc1cccc(-n2nc(-c3ccccc3)cc2NC(=O)Nc2cccc(Cl)c2Cl)c1` [Example 447, 1-(1-(3-(2-amino-2-oxoethyl)phenyl)-3-phenyl-1H-pyrazol-5-yl)-3-(2,3-dichlorophenyl)urea], in experiment [2], the IC50 was 0.011 µM. On to `NC(=O)Cc1cccc(-n2nc(-c3cccc(F)c3)cc2NC(=O)Nc2cccc(Cl)c2Cl)c1` [Example 449, 1-(1-(3-(2-amino-2-oxoethyl)phenyl)-3-(3-fluorophenyl)-1H-pyrazol-5-yl)-3-(2,3-dichlorophenyl)urea], for which the IC50 in experiment [2] turned out to be 0.022 µM. For the same compound, the inhibition at 10 µM at KDR kinase stood at 33%. With `NC(=O)Cc1cccc(-n2nc(-c3ccccc3F)cc2NC(=O)Nc2cccc(Cl)c2Cl)c1` [Example 450, 1-(1-(3-(2-amino-2-oxoethyl)phenyl)-3-(2-fluorophenyl)-1H-pyrazol-5-yl)-3-(2,3-dichlorophenyl)urea], the “% @ concentration, uM” value is reported as 89% in experiment [1] (Table 5, @ 1 uM) and 192% in experiment [1] (Table 5, @ 10 uM). Besides, the IC50 in experiment [2] came to 0.013 µM. Further, the inhibition at 10 µM on KDR kinase was determined as 45%. `NC(=O)Cc1cccc(-n2nc(-c3cccs3)cc2NC(=O)Nc2cccc(Cl)c2Cl)c1` [Example 451, 1-(1-(3-(2-amino-2-oxoethyl)phenyl)-3-(thiophen-2-yl)-1H-pyrazol-5-yl)-3-(2,3-dichlorophenyl)urea]: the “% @ concentration, uM” value in experiment [1] (Table 5, @ 1 uM) stood at 3% @1. In addition, the IC50 in experiment [2] came out at 0.008 µM; against B-Raf(V599E) kinase it was 0.84 µM. Take `CC(C(N)=O)c1cccc(-n2nc(-c3ccsc3)cc2NC(=O)Nc2cccc(Cl)c2Cl)c1` (stereo not drawn) [Example 453, 1-(1-(3-(1-amino-1-oxopropan-2-yl)phenyl)-3-(thiophen-3-yl)-1H-pyrazol-5-yl)-3-(2,3-dichlorophenyl)urea]: at KDR kinase, the inhibition at 10 µM came out at 34%. As to `O=C(Cc1cccc(-n2nc(-c3ccccc3)cc2NC(=O)Nc2cccc(Cl)c2Cl)c1)NCCO` [Example 454, 1-(2,3-dichlorophenyl)-3-(1-(3-(2-(2-hydroxyethylamino)-2-oxoethyl)phenyl)-3-phenyl-1H-pyrazol-5-yl)urea], the inhibition at 10 µM at KDR kinase stood at 27%. As to `O=C(Cc1cccc(-n2nc(-c3cccc(F)c3)cc2NC(=O)Nc2cccc(Cl)c2Cl)c1)NCCO` [Example 455, 1-(2,3-dichlorophenyl)-3-(3-(3-fluorophenyl)-1-(3-(2-(2-hydroxyethylamino)-2-oxoethyl)phenyl)-1H-pyrazol-5-yl)urea], the IC50 in experiment [1] (setting [3]) was 0.1 µM; in experiment [2], 0.018 µM. Moreover, at B-Raf(V599E) kinase, the inhibition at 1 µM amounted to 30%. Consider `O=C(Cc1cccc(-n2nc(-c3ccsc3)cc2NC(=O)Nc2cccc(Cl)c2Cl)c1)NCCO` [Example 458, 1-(2,3-dichlorophenyl)-3-(1-(3-(2-(2-hydroxyethylamino)-2-oxoethyl)phenyl)-3-(thiophen-3-yl)-1H-pyrazol-5-yl)urea], for which the IC50 stood at 1 µM in experiment [1] (setting [3]) and 0.007 µM in experiment [2]. In addition, on B-Raf(V599E) kinase, the inhibition at 1 µM amounted to 28%. Take `NC(=O)Cc1ccc(-n2nc(-c3cccs3)cc2NC(=O)Nc2cccc(Cl)c2Cl)cc1` [Example 468, 1-(1-(4-(2-amino-2-oxoethyl)phenyl)-3-(thiophen-2-yl)-1H-pyrazol-5-yl)-3-(2,3-dichlorophenyl)urea]: the IC50 in experiment [1] (setting [3]) worked out at 0.0086 µM; in experiment [2], 0.009 µM; at B-Raf(V599E) kinase, 1.2 µM. With `O=C(Cc1ccc(-n2nc(-c3cccs3)cc2NC(=O)Nc2cccc(Cl)c2Cl)cc1)NCC(O)CO` (stereo not drawn) [Example 472, 1-(2,3-dichlorophenyl)-3-(1-(4-(2-(2,3-dihydroxypropylamino)-2-oxoethyl)phenyl)-3-(thiophen-2-yl)-1H-pyrazol-5-yl)urea], the IC50 was determined as 0.05 µM in experiment [1] (setting [3]) and 0.01 µM in experiment [2]. For `O=C(Cc1ccc(-n2nc(-c3cccs3)cc2NC(=O)Nc2cccc(Cl)c2Cl)cc1)NC(CO)CO` [Example 474, 1-(2,3-dichlorophenyl)-3-(1-(4-(2-(1,3-dihydroxypropan-2-ylamino)-2-oxoethyl)phenyl)-3-(thiophen-2-yl)-1H-pyrazol-5-yl)urea], the results for the IC50 in experiment [1] (setting [3]) and in experiment [2] were 0.38 µM and 0.013 µM, respectively.

`CN1CCN(C(=O)Cc2ccc(-n3nc(-c4ccccc4)cc3NC(=O)Nc3cccc(Cl)c3Cl)cc2)CC1` [Example 475, 1-(2,3-dichlorophenyl)-3-(1-(4-(2-(4-methylpiperazin-1-yl)-2-oxoethyl)phenyl)-3-phenyl-1H-pyrazol-5-yl)urea]: the IC50 in experiment [1] (setting [3]) was found to be 0.01 µM. `O=C(Nc1cccc(Cl)c1Cl)Nc1cc(-c2ccccc2F)nn1-c1ccc(CC(=O)N2CC[C@H](O)C2)cc1` [Example 479, 1-(2,3-dichlorophenyl)-3-(3-(2-fluorophenyl)-1-(4-(2-((S)-3-hydroxypyrrolidin-1-yl)-2-oxoethyl)phenyl)-1H-pyrazol-5-yl)urea] yielded an IC50 in experiment [2] of 0.037 µM. As to `O=C(Nc1cccc(Cl)c1Cl)Nc1cc(-c2ccccc2F)nn1-c1cccc(CO)c1` [Example 485, 1-(2,3-dichlorophenyl)-3-(3-(2-fluorophenyl)-1-(3-(hydroxymethyl)phenyl)-1H-pyrazol-5-yl)urea], the IC50 in experiment [1] (setting [3]) turned out to be 0.05 µM. Besides, the inhibition at 10 µM at KDR kinase was 79%. Take `O=C(Nc1cccc(Cl)c1Cl)Nc1cc(-c2cccs2)nn1-c1cccc(CO)c1` [Example 486, 1-(2,3-dichlorophenyl)-3-(1-(3-(hydroxymethyl)phenyl)-3-(thiophen-2-yl)-1H-pyrazol-5-yl)urea]: the IC50 in experiment [1] (setting [3]) was 0.057 µM. For `CC(Cc1cccc(-n2nc(-c3cccs3)cc2NC(=O)Nc2cccc(Cl)c2Cl)c1)C(=O)O` (stereo not drawn) [Example 490, 3-(3-(5-(3-(2,3-dichlorophenyl)ureido)-3-(thiophen-2-yl)-1H-pyrazol-1-yl)phenyl)-2-methylpropanoic acid], the IC50 in experiment [1] (setting [3]) came to 0.34 µM. Regarding `CC(C)(C)c1cc(NC(=O)Nc2cccc(-c3cnccn3)c2)n(-c2cccc(CC(N)=O)c2)n1` [Example 509, 1-(1-(3-(2-amino-2-oxoethyl)phenyl)-3-tert-butyl-1H-pyrazol-5-yl)-3-(3-(pyrazin-2-yl)phenyl)urea], the IC50 stood at 0.5 µM in experiment [1] (setting [3]) and 0.28 µM on B-Raf(V599E) kinase. The “Results, % @ concentration μM” value in experiment [2] (@ 1.0 μM) turned out to be 57% @1.0. As for `CC(C)(C)c1cc(NC(=O)Nc2cccc3ccccc23)n(-c2cccc(CO)c2)n1` [Example D, 1-{3-t-butyl-1-[3-(hydroxymethyl)phenyl]-1H-pyrazol-5-yl}-3-(naphthalen-1-yl)urea], the IC50 in experiment [1] (Table 2, rates at […] to 2 h, read-out: IC50) came to 0.179 µM.
